In patent US6159746A, “Solid phase immunoassay to detect inhibitors of proteolytic enzymes” (Gruppo Lepetit S.p.A., priority 1994, dated 2000):
Read-outs that look alike come from different tables or passages of the source. Square brackets hold non-standard residues; d marks the D form. Peptide text beside a SMILES is read from it. * marks the point of attachment. Sta = CC(C)C[C@H](N)[C@@H](O)CC(=O)O; Isovaleryl = CC(C)CC(=O)*

Tests used:
Assay type in all cases: biochemical
Trypsin = assay: Inhibition of trypsin, solid phase tubulin immunoassay (YL 1/2 antibody), Table I; conditions: trypsin 0.25 μg/ml, 20 mM TRIS pH 7.4, 2 hours at 37° C.; inhibitor 0.01 to 10 μg/ml
Description: (§1) Covalent linkage of tubulin to the support
(§2) 0.150 ml of a freshly made phosfate buffered saline (PBS) solution (pH=7.3) containing 0.03 mg of bis(sulfo-succinidimyl)suberate (BS3, Pierce, Rockford, Ill.) are dispensed into each well of a cova-link 96 wells plate (Nunc). The solution is left in the wells at room temperature for 90 minutes, afterwards the wells are washed three times with PBS solution.
(§3) Afterwards, 0,150 ml of a PBS solution containing 5% glycine (v/v) and 0.75 μg of tubulin obtained according to Example 1 is added to each well. After 90 minutes at room temperature, the solution is removed and 0.3 ml of a 5% glycine PBS solution are added. After about 2 hours, the wells are washed with fresh PBS solution.
(§4) Determination of the anti-proteolytic activity
(§5) 0.15 ml of a solution containing a proteolytic activity and a known inhibitor (concentration from 0.01 to 10 μg/ml) are added to the wells treated according to Example 2 or Example 2a and incubated for 2 hours at 37° C.
(§6) The employed proteolytic enzymes are:
(§7) Serine class: trypsin (0.25 μg/ml), subtilisin (0.25 μg/ml), elastase (0.5 μg/ml) and cathepsin G (5 μg/ml), in a 20 mM solution of Tris-hydroxymethyl-aminomethanchloride (TRIS) (pH=7.4);
(§8) Table I reports the concentration of these inhibitors which determines a 50% inhibition of the above proteases.
(§9) After three rapid washing with PBS solution (pH=7.3), the inhibitory activity is determined as follows:
(§10) A YL 1/2 antibody solution (Amersham) diluted 1:1000 in PBS buffer is added to each well and incubated for 1 hour at room temperature. After three rapid washing with PBS solution, an anti-rat peroxydated antibody solution (Amersham) diluted 1:1000 in PBS buffer is added to each well and incubated for 1 hour at room temperature. After 10-15 minutes, the colour is developed with a 0.5 M citric acid solution (pH=5.5) containing 1 mg/ml of o-phenylendiamine. After 5-10 minutes, the reaction is stopped with H2 SO4 4 M. The colour is detected on a Titertek Multiscan MCC340-HK spectrophotometer reading the absorbance at 492 nm.

Subtilisin = assay: Inhibition of subtilisin, solid phase tubulin immunoassay, Table I; conditions: subtilisin 0.25 μg/ml, 20 mM TRIS pH 7.4, 2 hours at 37° C.; inhibitor 0.01 to 10 μg/ml
Description: as §1, §2, §3, §4, §5, §6, §7, §8, §9, §10

Elastase = assay: Inhibition of elastase, solid phase tubulin immunoassay, Table I; conditions: elastase 0.5 μg/ml, 20 mM TRIS pH 7.4, 2 hours at 37° C.; inhibitor 0.01 to 10 μg/ml
Description: as §1, §2, §3, §4, §5, §6, §7, §8, §9, §10

Cathepsin G = biological target: T1, Cathepsin G (Homo sapiens, UniProt P08311); assay: Inhibition of cathepsin G, solid phase tubulin immunoassay, Table I
T1 sequence (P08311 21-255): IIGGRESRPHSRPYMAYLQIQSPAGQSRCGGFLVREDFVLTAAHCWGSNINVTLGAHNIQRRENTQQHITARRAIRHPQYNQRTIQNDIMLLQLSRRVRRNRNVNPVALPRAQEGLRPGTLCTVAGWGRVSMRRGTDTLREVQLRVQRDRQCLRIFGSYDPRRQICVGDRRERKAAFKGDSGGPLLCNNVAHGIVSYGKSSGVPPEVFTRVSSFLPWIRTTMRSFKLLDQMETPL
Description: as §1, §2, §3, §4, §5, §6, §7, §8, §9, §10

Pepsin = Pepsin (Sus scrofa, UniProt P00791); assay: Inhibition of pepsin, solid phase tubulin immunoassay, Table I
Sequence of Pepsin (P00791 60-385): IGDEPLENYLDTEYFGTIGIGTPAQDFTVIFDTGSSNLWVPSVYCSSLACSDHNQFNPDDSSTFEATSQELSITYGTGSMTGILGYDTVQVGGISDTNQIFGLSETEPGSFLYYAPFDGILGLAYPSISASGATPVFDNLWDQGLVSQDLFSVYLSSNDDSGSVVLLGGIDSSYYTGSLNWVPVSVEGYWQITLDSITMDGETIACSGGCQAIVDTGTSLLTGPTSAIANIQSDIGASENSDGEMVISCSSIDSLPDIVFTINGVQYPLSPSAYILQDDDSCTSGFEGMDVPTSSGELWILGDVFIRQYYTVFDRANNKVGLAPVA
Description: as §1, §2, §3, §4, §5, §6
Aspartic class: pepsin (5 μg/ml), cathepsin D (5 μg/ml), renin (5 μg/ml) and Hiv-1 protease (5 μg/ml), in a 50 mM acetate buffer solution (pH=5.5) containing 0.01% Tween 20 (Pierce);
as §9, §10

Cathepsin D = Cathepsin D (Homo sapiens, UniProt P07339); assay: Inhibition of cathepsin D, solid phase tubulin immunoassay, Table I
Sequence of Cathepsin D (P07339 65-412, species assumed): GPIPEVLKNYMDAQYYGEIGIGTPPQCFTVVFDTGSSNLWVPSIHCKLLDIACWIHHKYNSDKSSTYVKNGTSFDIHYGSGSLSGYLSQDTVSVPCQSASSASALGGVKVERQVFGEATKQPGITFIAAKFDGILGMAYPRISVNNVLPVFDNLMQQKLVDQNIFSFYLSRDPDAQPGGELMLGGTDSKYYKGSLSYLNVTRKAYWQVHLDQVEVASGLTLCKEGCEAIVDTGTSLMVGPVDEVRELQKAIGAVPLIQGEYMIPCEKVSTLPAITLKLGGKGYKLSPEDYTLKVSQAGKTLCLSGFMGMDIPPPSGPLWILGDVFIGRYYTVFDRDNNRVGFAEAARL
Description: as §1, §2, §3, §4
(§11) 0.15 ml of a solution containing a proteolytic activity and a known inhibitor (concentration from 0.01 to 10 μg/ml) are added to the wells treated according to Example 2 or Example 2a and incubated for 2 hours at 37° C. […]
as §9
(§12) A YL 1/2 antibody solution (Amersham) diluted 1:1000 in PBS buffer is added to each well and incubated for 1 hour at room temperature. […] After 5-10 minutes, the reaction is stopped with H2 SO4 4 M. The colour is detected on a Titertek Multiscan MCC340-HK spectrophotometer reading the absorbance at 492 nm.

Renin = biological target: T2, Renin (Homo sapiens, UniProt P00797); assay: Inhibition of renin, solid phase tubulin immunoassay, Table I
T2 sequence (P00797 67-406): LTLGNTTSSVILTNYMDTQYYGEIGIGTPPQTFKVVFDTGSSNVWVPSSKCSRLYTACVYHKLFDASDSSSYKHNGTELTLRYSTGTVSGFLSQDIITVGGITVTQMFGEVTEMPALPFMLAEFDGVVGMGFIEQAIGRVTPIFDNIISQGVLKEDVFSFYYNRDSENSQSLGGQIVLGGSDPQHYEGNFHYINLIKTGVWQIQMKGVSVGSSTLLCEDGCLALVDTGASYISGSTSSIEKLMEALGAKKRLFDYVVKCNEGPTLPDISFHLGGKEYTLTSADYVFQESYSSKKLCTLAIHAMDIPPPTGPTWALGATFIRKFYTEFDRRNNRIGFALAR
Description: as §1, §2, §3, §4, §11, §9, §12

Hiv-1 protease = biological target: T3, Hiv-1 protease (Human immunodeficiency virus type 1 group M subtype B, UniProt P04585); assay: Inhibition of Hiv-1 protease, solid phase tubulin immunoassay, Table I
T3 construct: Hiv-1 protease
Description: as §1, §2, §3, §4, §11, §9, §12

Papain [1] = biological target: Papain (Carica papaya, UniProt P00784); assay: Inhibition of papain, solid phase tubulin immunoassay, Table I; conditions: papain 0.25 μg/ml, 50 mM acetate pH 5.5, 5 mM cysteine, 2 hours at 37° C.; inhibitor 0.01 to 10 μg/ml; read-out: Concentration of inhibitor in the proteolytic solution which determines the 50% inhibition of the protease (converted)
Description: as §1, §2, §3, §4, §5, §6
(§13) Cysteine class: papain (0.25 μg/ml) and cathepsin B (10 μg/ml) in a 50 mM acetate buffer solution (pH=5.5) containing 5 mM cysteine.
as §8, §9, §10

Cathepsin B = Cathepsin B (Homo sapiens, UniProt P07858); assay: Inhibition of cathepsin B, solid phase tubulin immunoassay, Table I
Description: as §1, §2, §3, §4, §11, §9, §12

[2] = system: proteases of the cysteine class; assay: Specificity for protease classes, solid phase tubulin immunoassay; conditions: in words
Description: (§14) As mentioned above, the first step of the present assay is the contact of the supported tubulin or tubulin-like peptide with a solution containing a proteolytic activity as above described. By contacting solutions containing different proteolytic activities and a same inhibitor substance, it is possible to determine both the specificity of said inhibitor against the selected protease and the percentage of inhibition.
as §4, §5, §6, §13, §8, §9, §12

[3] = system: proteases of the aspartic class; assay: as above; conditions: in words
Description: as §14, §4, §5, §6
Aspartic class: pepsin (5 μg/ml), cathepsin D (5 μg/ml), renin (5 μg/ml) and Hiv-1 protease (5 μg/ml), in a 50 mM acetate buffer solution (pH=5.5) containing 0.01% Tween 20 (Pierce); […]
as §9, §12

Papain [4] = biological target: T4, Papain (Carica papaya, UniProt P00784); assay: Inhibition of papain, solid phase tubulin immunoassay, Table I; conditions: papain 0.25 μg/ml, 50 mM acetate pH 5.5, 5 mM cysteine, 2 hours at 37° C.; inhibitor 0.01 to 10 μg/ml
T4 sequence (P00784 whole entry, looked up): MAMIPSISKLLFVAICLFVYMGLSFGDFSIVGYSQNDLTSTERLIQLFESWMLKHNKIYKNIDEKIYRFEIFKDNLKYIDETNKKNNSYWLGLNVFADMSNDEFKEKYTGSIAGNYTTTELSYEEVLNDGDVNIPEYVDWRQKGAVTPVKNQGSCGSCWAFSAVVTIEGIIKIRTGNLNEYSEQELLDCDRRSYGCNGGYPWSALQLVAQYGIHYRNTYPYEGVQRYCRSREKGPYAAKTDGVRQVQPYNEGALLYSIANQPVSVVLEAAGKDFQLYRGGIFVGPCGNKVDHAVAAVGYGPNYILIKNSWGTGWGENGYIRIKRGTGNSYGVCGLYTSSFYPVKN
Description: as §1, §2, §3, §4, §5, §6, §13, §8, §9, §10

[5] = system: proteases of the serine class; assay: Specificity for protease classes, solid phase tubulin immunoassay; conditions: in words
Description: as §14, §4, §5, §6
Serine class: trypsin (0.25 μg/ml), subtilisin (0.25 μg/ml), elastase (0.5 μg/ml) and cathepsin G (5 μg/ml), in a 20 mM solution of Tris-hydroxymethyl-aminomethanchloride (TRIS) (pH=7.4); […]
as §9, §12

Compound: CC(=O)N[C@@H](CC(C)C)C(=O)N[C@@H](CC(C)C)C(=O)N[C@H](C=O)CCCNC(=N)N [Leupeptin]
- Concentration of inhibitor in the proteolytic solution which determines the 50% inhibition of the protease (Trypsin): n.i. (no inhibition)
- Concentration of inhibitor in the proteolytic solution which determines the 50% inhibition of the protease (Subtilisin): n.i. (no inhibition)
- Concentration of inhibitor in the proteolytic solution which determines the 50% inhibition of the protease (Elastase): n.i. (no inhibition)
- IC50 (Cathepsin G): > 23.4 µM
- IC50 (Pepsin): > 23.4 µM
- IC50 (Cathepsin D): > 23.4 µM
- IC50 (Renin): > 23.4 µM
- IC50 (Hiv-1 protease): > 23.4 µM
- IC50 (Papain [1]): 0.117 µM
- IC50 (Cathepsin B): 5.86 µM
- specific inhibition of proteases of the cysteine class [2]: specific inhibition

Compound: CC(C)CC(=O)N[C@H](C(=O)N[C@H](C(=O)N[C@@H](CC(C)C)[C@@H](O)CC(=O)N[C@@H](C)C(=O)N[C@@H](CC(C)C)[C@@H](O)CC(=O)O)C(C)C)C(C)C [Pepstatin] (Isovaleryl-VV[Sta]A[Sta]-OH)
- Concentration of inhibitor in the proteolytic solution which determines the 50% inhibition of the protease (Trypsin): n.i. (no inhibition)
- Concentration of inhibitor in the proteolytic solution which determines the 50% inhibition of the protease (Subtilisin): n.i. (no inhibition)
- Concentration of inhibitor in the proteolytic solution which determines the 50% inhibition of the protease (Elastase): n.i. (no inhibition)
- IC50 (Cathepsin G): > 14.6 µM
- IC50 (Pepsin; 50% inhibition of pepsin, under the test conditions): ~0.02 µM
- IC50 (Papain [1]): > 14.6 µM
- specific inhibition of proteases of the aspartic class [3]: specific inhibitor for the proteases of the aspartic class

Compound: α-anti trypsin: inhibitor of the serine class
- Concentration of inhibitor in the proteolytic solution which determines the 50% inhibition of the protease (Trypsin): 1.0 µg/mL
- Concentration of inhibitor in the proteolytic solution which determines the 50% inhibition of the protease (Subtilisin): 7.5 µg/mL
- Concentration of inhibitor in the proteolytic solution which determines the 50% inhibition of the protease (Elastase): 1.0 µg/mL
- Concentration of inhibitor in the proteolytic solution which determines the 50% inhibition of the protease (Cathepsin G; cathepsin G 5 μg/ml, 20 mM TRIS pH 7.4, 2 hours at 37° C., inhibitor 0.01 to 10 μg/ml): n.i. (no inhibition)
- Concentration of inhibitor in the proteolytic solution which determines the 50% inhibition of the protease (Pepsin; pepsin 5 μg/ml, 50 mM acetate pH 5.5, 0.01% Tween 20, 2 hours at 37° C., inhibitor 0.01 to 10 μg/ml): n.i. (no inhibition)
- Concentration of inhibitor in the proteolytic solution which determines the 50% inhibition of the protease (Cathepsin D; cathepsin D 5 μg/ml, 50 mM acetate pH 5.5, 0.01% Tween 20, 2 hours at 37° C., inhibitor 0.01 to 10 μg/ml): n.i. (no inhibition)
- Concentration of inhibitor in the proteolytic solution which determines the 50% inhibition of the protease (Renin; renin 5 μg/ml, 50 mM acetate pH 5.5, 0.01% Tween 20, 2 hours at 37° C., inhibitor 0.01 to 10 μg/ml): n.i. (no inhibition)
- Concentration of inhibitor in the proteolytic solution which determines the 50% inhibition of the protease (Hiv-1 protease; Hiv-1 protease 5 μg/ml, 50 mM acetate pH 5.5, 0.01% Tween 20, 2 hours at 37° C., inhibitor 0.01 to 10 μg/ml): n.i. (no inhibition)
- Concentration of inhibitor in the proteolytic solution which determines the 50% inhibition of the protease (Papain [4]): n.i. (no inhibition)
- Concentration of inhibitor in the proteolytic solution which determines the 50% inhibition of the protease (Cathepsin B; cathepsin B 10 μg/ml, 50 mM acetate pH 5.5, 5 mM cysteine, 2 hours at 37° C., inhibitor 0.01 to 10 μg/ml): n.i. (no inhibition)
- specific inhibition of proteases of the serine class [5]: specific inhibition
